According to US20090068290A1, “BIFEPRUNOX DOSES FOR TREATING SCHIZOPHRENIA” (priority 2006, published 2009):

Key:
[1] = tested on: adult subjects with schizophrenia; assay: CGI Improvement score, Clinical Study One; assay type: in vivo, human; set-up: Actual Value of CGI Improvement Score, Median / CGI Improvement Score, Trt Effect: scale not given here
Protocol: There were five treatment groups in this study. […] Study medication was administered once daily. After Baseline measurements were performed, the titration phase was begun. Bifeprunox treated subjects were titrated up to 5 mg, 10 mg or 20 mg according to a standardized titration schedule (Day 1: 0.125 mg, Day 2: 0.25 mg, Day 3: 0.5 mg, Day 4: 1.0 mg, Day 5: 2.0 mg, Day 6: 5.0 mg, Day 7: 10.0 mg, Day 8: 20 mg). When the assigned dose was reached, subjects were maintained at that dose for the remainder of the six-week treatment period.
The change in the Positive and Negative Symptom Scale (PANSS) total score, from baseline to endpoint, was the primary outcome measure. Secondary efficacy measures included: PANSS positive, PANSS negative, PANSS general psychopathology (GPP) score, PANSS-derived Brief Psychiatric Rating Scale (BPRS) score, Clinical Global Impressions-Severity of Illness (CGI-S), CGI-Improvement (CGI-I) scores, and responder rates. Safety and tolerability evaluations included extrapyramidal symptoms (EPS), weight gain, lipid profile, and serum prolactin.

[2] = tested on: adult subjects with schizophrenia; assay: PANSS total score, Clinical Study Two (6-week, risperidone-referenced); assay type: in vivo, human; settings: LOCF, ITT
Protocol: Treatment started with a single-blind placebo lead-in period of at least three days, followed by titration from 0.25 mg up to 30 mg/day or 40 mg/day of bifeprunox for bifeprunox-treated subjects.
Rating scale assessments were performed weekly, except for week 5, to measure the change from baseline to endpoint of the PANSS total score. Other assessments included: PANSS positive symptom subscale score, PANSS negative symptom subscale score, PANSS general pschopathology subscale score, BPRS total score, BPRS psychosis score, the CGI-S score, the CGI-I score, responder rates based on the PANSS total score, and the Calgary Depression Scale for Schizophrenia (CDSS).
Subjects who completed this study had the option to continue in the long-term. […] After completing a Single-Blind placebo lead-in period of at least three days, bifeprunox-treated subjects were titrated from 0.25 mg up to 30 mg/day or 40 mg/day according to a standardized titration scheme over an eight-day period. When the assigned dose was reached, subjects were maintained at that dose for the remainder of the six week treatment period. […] Rating scale assessments for efficacy and abnormal movement disorders were done weekly except for Week 5. Safety assessments were performed at Screening, during treatment and at the end of the study. Subject satisfaction with study medication was assessed at Week 6. Samples of blood were obtained at Weeks 2, 4, and 6 for determination of bifeprunox in plasma. Blood samples were also obtained at Screening/Baseline, Week 3, and Week 6 for clinical laboratory assessments.
Diagnosis and Main Criteria for Inclusion: Male or female subjects 18-75 years of age with schizophrenia (per DSM-IV-TR criteria). Subjects had to have a total score on the PANSS between 70 and 120; at least two of four PANSS items (conceptual disorganization, hallucinatory behavior, suspiciousness, unusual thought content) had to have a score ≧4; and the score on the CGI-S had to be at least 4.

[3] = Bifeprunox 30 mg, Week 6/Endpoint
[4] = Bifeprunox 40 mg, Week 6/Endpoint

O=c1[nH]c2cccc(N3CCN(Cc4cccc(-c5ccccc5)c4)CC3)c2o1 [Bifeprunox, 7-[4-([1,1′-biphenyl]-3-ylmethyl)-1-piperazinyl]-2(3H)-benzoxazolone]
CGI Improvement Score, Trt Effect ([1]; 5 mg versus placebo, Endpoint LOCF): −0.28
Actual Value of CGI Improvement Score, Mean (S.D.) ([1]; 5 mg, Endpoint LOCF): 3.33 (1.37)
Actual Value of CGI Improvement Score, Median ([1]; 5 mg, Endpoint LOCF): 3.0
Actual Value of CGI Improvement Score, Mean (S.D.) ([1]; 5 mg, Week 1, LOCF): 3.76 (0.85)
Actual Value of CGI Improvement Score, Median ([1]; 5 mg, Week 1, LOCF): 4.0
Actual Value of CGI Improvement Score, Mean (S.D.) ([1]; 5 mg, Week 2, LOCF): 3.46 (1.10)
Actual Value of CGI Improvement Score, Median ([1]; 5 mg, Week 2, LOCF): 3.0
Actual Value of CGI Improvement Score, Mean (S.D.) ([1]; 5 mg, Week 3, LOCF): 3.2 (1.27)
Actual Value of CGI Improvement Score, Median ([1]; 5 mg, Week 3, LOCF): 3.0
Actual Value of CGI Improvement Score, Mean (S.D.) ([1]; 5 mg, Week 4, LOCF): 3.37 (1.35)
Actual Value of CGI Improvement Score, Median ([1]; 5 mg, Week 4, LOCF): 3.0
CGI Improvement Score, Trt Effect ([1]; 10 mg versus placebo, Endpoint LOCF): 0.28
Actual Value of CGI Improvement Score, Mean (S.D.) ([1]; 10 mg, Endpoint LOCF): 3.90 (1.39)
Actual Value of CGI Improvement Score, Median ([1]; 10 mg, Endpoint LOCF): 4.0
Actual Value of CGI Improvement Score, Mean (S.D.) ([1]; 10 mg, Week 1, LOCF): 3.88 (1.00)
Actual Value of CGI Improvement Score, Median ([1]; 10 mg, Week 1, LOCF): 4.0
Actual Value of CGI Improvement Score, Mean (S.D.) ([1]; 10 mg, Week 2, LOCF): 3.71 (1.23)
Actual Value of CGI Improvement Score, Median ([1]; 10 mg, Week 2, LOCF): 4.0
Actual Value of CGI Improvement Score, Mean (S.D.) ([1]; 10 mg, Week 3, LOCF): 3.79 (1.32)
Actual Value of CGI Improvement Score, Median ([1]; 10 mg, Week 3, LOCF): 4.0
Actual Value of CGI Improvement Score, Mean (S.D.) ([1]; 10 mg, Week 4, LOCF): 3.86 (1.35)
Actual Value of CGI Improvement Score, Median ([1]; 10 mg, Week 4, LOCF): 4.0
CGI Improvement Score, Trt Effect ([1]; 20 mg versus placebo, Endpoint LOCF): −0.21
Actual Value of CGI Improvement Score, Mean (S.D.) ([1]; 20 mg, Endpoint LOCF): 342 (1.30)
Actual Value of CGI Improvement Score, Median ([1]; 20 mg, Endpoint LOCF): 3.0
Actual Value of CGI Improvement Score, Mean (S.D.) ([1]; 20 mg, Week 1, LOCF): 3.54 (0.99)
Actual Value of CGI Improvement Score, Median ([1]; 20 mg, Week 1, LOCF): 4.0
Actual Value of CGI Improvement Score, Mean (S.D.) ([1]; 20 mg, Week 2, LOCF): 3.30 (114)
Actual Value of CGI Improvement Score, Median ([1]; 20 mg, Week 2, LOCF): 3.0
Actual Value of CGI Improvement Score, Mean (S.D.) ([1]; 20 mg, Week 3, LOCF): 3.31 (1.19)
Actual Value of CGI Improvement Score, Median ([1]; 20 mg, Week 3, LOCF): 3.0
Actual Value of CGI Improvement Score, Mean (S.D.) ([1]; 20 mg, Week 4, LOCF): 3.35 (1.29)
Actual Value of CGI Improvement Score, Median ([1]; 20 mg, Week 4, LOCF): 3.0
Change from Baseline in PANSS Total Score, Mean (SD) ([2]; Bifeprunox 30 mg, Week 1): −6.6 (11.8)
Change from Baseline in PANSS Total Score, Median ([2]; Bifeprunox 30 mg, Week 1): −5
Change from Baseline in PANSS Total Score, Mean (SD) ([2]; Bifeprunox 30 mg, Week 2): −11.6 (15.5)
Change from Baseline in PANSS Total Score, Median ([2]; Bifeprunox 30 mg, Week 2): −10
Change from Baseline in PANSS Total Score, Mean (SD) ([2]; Bifeprunox 30 mg, Week 3): −13.3 (17.8)
Change from Baseline in PANSS Total Score, Median ([2]; Bifeprunox 30 mg, Week 3): −10
Change from Baseline in PANSS Total Score, Mean (SD) ([2]; Bifeprunox 30 mg, Week 4): −13.6 (18.9)
Change from Baseline in PANSS Total Score, Median ([2]; Bifeprunox 30 mg, Week 4): −10
Change from Baseline in PANSS Total Score, Mean (SD) [2, 3]: −13.5 (20.1)
Change from Baseline in PANSS Total Score, Median [2, 3]: −10
PANSS Total Score, Trt Effect (difference between bifeprunox and placebo) ([2]; Bifeprunox 30 mg, Week 6/Endpoint, ANCOVA): −5.9
Change from Baseline in PANSS Total Score, Mean (SD) ([2]; Bifeprunox 40 mg, Week 1): −6.7 (11.5)
Change from Baseline in PANSS Total Score, Median ([2]; Bifeprunox 40 mg, Week 1): −6
Change from Baseline in PANSS Total Score, Mean (SD) ([2]; Bifeprunox 40 mg, Week 2): −8.9 (15.6)
Change from Baseline in PANSS Total Score, Median ([2]; Bifeprunox 40 mg, Week 2): −8
Change from Baseline in PANSS Total Score, Mean (SD) ([2]; Bifeprunox 40 mg, Week 3): −10.0 (17.8)
Change from Baseline in PANSS Total Score, Median ([2]; Bifeprunox 40 mg, Week 3): −10
Change from Baseline in PANSS Total Score, Mean (SD) ([2]; Bifeprunox 40 mg, Week 4): −9.2 (18.8)
Change from Baseline in PANSS Total Score, Median ([2]; Bifeprunox 40 mg, Week 4): −7
Change from Baseline in PANSS Total Score, Mean (SD) [2, 4]: −10.3 (20.5)
Change from Baseline in PANSS Total Score, Median [2, 4]: −7
